Experimental data from patent publication US20110105389A1 (priority 2009, published 2011).

What follows are molecules tested against T1, human ghrelin receptor (GRLN, growth hormone secretagogue receptor, hGHS-R1a) (Homo sapiens, UniProt Q92847) (assay: Competitive radioligand binding assay (ghrelin receptor), Method B1). Conditions: Ghrelin receptor binding activity, Method B1.
T1 construct: purchased PerkinElmer BioSignal #RBHGHSM, lot#1887; host or cells: HEK-293 cells, stably transfected (membranes)
Method: Multiscreen Harvest plates-GF/C (Millipore, #MAHFC1H60) • 4. […] Bottom seal (Millipore, #MATAH0P00) • 7. […] Binding Buffer: 25 mM Hepes (pH 7.4), 1 mM CaCl2, 5 mM MgCl2. 2.5 mM EDTA, 0.4% BSA
Competition experiments were performed in a 300 μl filtration assay format. • 1. 220 μL of membranes diluted in binding buffer • 2. 40 μL of compound diluted in binding buffer • 3.
Compounds were provided frozen on dry ice at a stock concentration of 10 mM diluted in 100% DMSO and stored at −80° C. until the day of testing. On the test day, compounds were allowed to thaw at rt overnight and then diluted in assay buffer according to the desired test concentrations. Under these conditions, the maximal final DMSO concentration in the assay was 0.1%.
Plates were sealed with TopSeal-A, vortexed gently and incubated at rt for 30 min. The reaction was arrested by filtering samples through Multiscreen Harvest plates (pre-soaked in 0.5% polyethyleneimine) using a Tomtec Harvester, washed 9 times with 500 μL of cold 50 mM Tris-HCl (pH 7.4, 4° C.), and then plates were air-dried in a fumehood for 30 min. A bottom seal was applied to the plates prior to the addition of 25 μL of MicroScint-0 to each well. Plates were than sealed with TopSeal-A and counted for 30 sec per well on a TopCount Microplate Scintillation and Luminescence Counter (PerkinElmer) using a count delay of 60 sec. Results were expressed as counts per minute (cpm).
Data were analyzed by GraphPad Prism (GraphPad Software, San Diego, Calif.) using a variable slope non-linear regression analysis. […] Dmax values were calculated using the following formula: […]

T1 sequence (Q92847 whole entry): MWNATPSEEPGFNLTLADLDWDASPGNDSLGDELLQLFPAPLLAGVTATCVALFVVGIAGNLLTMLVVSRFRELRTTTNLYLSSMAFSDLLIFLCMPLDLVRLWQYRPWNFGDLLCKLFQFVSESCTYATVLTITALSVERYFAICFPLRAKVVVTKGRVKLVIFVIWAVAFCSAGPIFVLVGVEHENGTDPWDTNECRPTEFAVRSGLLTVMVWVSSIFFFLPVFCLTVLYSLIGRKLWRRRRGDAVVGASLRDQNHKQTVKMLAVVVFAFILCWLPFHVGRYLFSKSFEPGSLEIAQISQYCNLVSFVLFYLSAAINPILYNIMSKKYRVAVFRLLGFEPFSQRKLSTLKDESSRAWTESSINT

IC50, 10 to 100 nM:
CC[C@@H]1CCc2ccccc2O[C@H](C)CN[C@@H](C2(C)CC2)C(=O)N(C)[C@@H](C(C)O)C(=O)N[C@H](Cc2c[nH]c3ccccc23)C(=O)N1 (stereo partly drawn) [Compound 1756], CC1CCc2ccccc2OCCNC(C(C)(C)C)C(=O)N(C)C(C(C)O)C(=O)NC(Cc2ccc(Cl)cc2)C(=O)N1 (stereo not drawn) [Compound 1800], CC(O)[C@H]1C(=O)N[C@H](Cc2ccccc2)C(=O)N[C@H](C)CCc2ccc(F)cc2O[C@H](C)CN[C@@H](C2(C)CC2)C(=O)N1C (stereo partly drawn) [Compound 1869], CC(O)[C@H]1C(=O)N[C@H](Cc2ccc(F)cc2)C(=O)N[C@H](C)CCc2ccc(F)cc2O[C@H](C)CN[C@@H](C2(C)CC2)C(=O)N1C (stereo partly drawn) [Compound 1870], CC(O)[C@H]1C(=O)N[C@H](Cc2ccc(Cl)cc2)C(=O)N[C@H](C)CCc2ccc(F)cc2O[C@H](C)CN[C@@H](C2(C)CC2)C(=O)N1C (stereo partly drawn) [Compound 1871], CC(C)[C@@H]1NCCOc2ncccc2CC[C@@H](C)NC(=O)[C@@H](Cc2ccccc2)NC(=O)[C@H](C(C)O)N(C)C1=O (stereo partly drawn) [Compound 1906], CC(O)[C@H]1C(=O)N[C@H](Cc2ccccc2)C(=O)N[C@H](C)CCc2cccnc2OCCN[C@@H](C2(C)CC2)C(=O)N1C (stereo partly drawn) [Compound 1907], CC[C@@H]1CCc2ccc(F)cc2OCCN[C@@H](C2(C)CC2)C(=O)N(C)[C@@H](C(C)O)C(=O)N[C@H](Cc2ccc(F)cc2)C(=O)N1 (stereo partly drawn) [Compound 1913]

IC50, > 500 nM:
CC(O)[C@H]1C(=O)N[C@H](Cc2ccc(Cl)cc2)C(=O)N[C@H](C)CCc2ccccc2OCCN[C@@H](C2CCCCC2)C(=O)N1C (stereo partly drawn) [Compound 1744], CC[C@@H]1CCc2ccc(F)cc2OCCN[C@@H](CC(C)(C)C)C(=O)N(C)[C@@H](C(C)O)C(=O)N[C@H](Cc2c[nH]c3ccccc23)C(=O)N1 (stereo partly drawn) [Compound 1764], CC(=O)OC(C)C1C(=O)NC(Cc2ccccc2)C(=O)NCC=Cc2ccccc2OCCNC(C(C)C)C(=O)N1C (stereo not drawn) [Compound 1841], CCC1CCc2ccc(F)cc2OCCNC(C(C)C)C(=O)N(C)C(C(C)OC(C)=O)C(=O)NC(Cc2c[nH]c3ccccc23)C(=O)N1 (stereo not drawn) [Compound 1851], CCC1CCc2ccc(F)cc2OC(C)CNC(CC)C(=O)N(C)C(C(C)O)C(=O)NC(Cc2ccccc2)C(=O)N1 (stereo not drawn) [Compound 1852], CC[C@@H]1CCc2c(cccc2C(N)=O)OCCN[C@@H](C(C)C)C(=O)N(C)[C@@H](C(C)O)C(=O)N[C@H](Cc2ccccc2)C(=O)N1 (stereo partly drawn) [Compound 1864], CC[C@@H]1CCc2c(NS(C)(=O)=O)cccc2OCCN[C@@H](C(C)C)C(=O)N(C)[C@@H](C(C)O)C(=O)N[C@H](Cc2ccccc2)C(=O)N1 (stereo partly drawn) [Compound 1866], CC[C@@H]1CCc2c(cccc2C(F)(F)F)OCCN[C@@H](C(C)C)C(=O)N(C)[C@@H](C(C)O)C(=O)N[C@H](Cc2ccccc2)C(=O)N1 (stereo partly drawn) [Compound 1888], CC[C@@H]1CCc2c(cccc2C(F)(F)F)OCCN[C@@H](C(C)C)C(=O)N(C)[C@@H](C(C)O)C(=O)N[C@H](Cc2ccc(F)cc2)C(=O)N1 (stereo partly drawn) [Compound 1892], CC[C@@H]1CCc2c(cccc2C(F)(F)F)OCCN[C@@H](C2(C)CC2)C(=O)N(C)[C@@H](C(C)O)C(=O)N[C@H](Cc2ccccc2)C(=O)N1 (stereo partly drawn) [Compound 1912]

IC50, 1 to 10 nM:
CC(O)[C@H]1C(=O)N[C@H](Cc2ccc3ccccc3c2)C(=O)NCCCc2cccnc2OCCN[C@@H](C2(C)CC2)C(=O)N1C (stereo partly drawn) [Compound 1880]

IC50, 100 to 500 nM:
CCC(C)C1NCCOc2ccccc2C=CCNC(=O)C(Cc2ccc(Cl)cc2)NC(=O)C(C(C)OC(C)=O)N(C)C1=O (stereo not drawn) [Compound 1842], CCC1CCc2ccc(C(F)(F)F)cc2OCCNC(C(C)C)C(=O)N(C)C(C(C)O)C(=O)NC(Cc2ccccc2)C(=O)N1 (stereo not drawn) [Compound 1846], CC(C)[C@@H]1NCCOc2cc(F)ccc2CCC(CC(F)(F)F)NC(=O)[C@@H](Cc2c[nH]c3ccccc23)NC(=O)[C@H](C(C)O)N(C)C1=O (stereo partly drawn) [Compound 1885], CC[C@@H]1CCc2c(C#N)cccc2OCCN[C@@H](C(C)C)C(=O)N(C)[C@@H](C(C)O)C(=O)N[C@H](Cc2ccccc2)C(=O)N1 (stereo partly drawn) [Compound 1889], CC[C@@H]1CCc2c(cccc2C(F)(F)F)OCCN[C@@H](C(C)C)C(=O)N(C)[C@@H](C(C)O)C(=O)N[C@H](Cc2c[nH]c3ccccc23)C(=O)N1 (stereo partly drawn) [Compound 1891], CC[C@@H]1CCc2c(C#N)cccc2OCCN[C@@H](C2(C)CC2)C(=O)N(C)[C@@H](C(C)O)C(=O)N[C@H](Cc2ccccc2)C(=O)N1 (stereo partly drawn) [Compound 1895], CC[C@@H]1CCc2c(C#N)cccc2OCCN[C@@H](C(C)C)C(=O)N(C)[C@@H](C(C)O)C(=O)N[C@H](Cc2c[nH]c3ccccc23)C(=O)N1 (stereo partly drawn) [Compound 1896], CC[C@@H]1CCc2c(C#N)cccc2OCCN[C@@H](C(C)C)C(=O)N(C)[C@@H](C(C)O)C(=O)N[C@H](Cc2ccc(F)cc2)C(=O)N1 (stereo partly drawn) [Compound 1897], CC(O)C1C(=O)NC(Cc2ccccc2)C(=O)NC(CC(F)(F)F)CCc2ccc(F)cc2OCCNC(C2(C)CC2)C(=O)N1C (stereo not drawn) [Compound 1921]

Each molecule was assayed against T2, GHS-R1a receptor (HEK293 cells expressing GHS-R1a receptor) (Homo sapiens, UniProt Q92847) (assay: Fluorescence functional assay (ghrelin receptor), Method B2, agonist and antagonist mode). Conditions: functional activity as an antagonist at the ghrelin receptor, Methods B2 and B3.
T2 construct: host or cells: HEK293
Type: cell-based
Method: • 1. ImageTrak Epi-Fluorescence system (Perkin-Elmer) • 2. MultiDrop TiterTek • 3. CO2 incubators: 5% CO2, humidified, 37° C.
• 1. Hanks' BSS without phenol red (Life Technologies) • 2. Hepes buffer • 3. Probenecid (Sigma) • 4. […] Falcon cell culture 96-well black/clear bottom plates • 6. 0.05% trypsin-EDTA • 7. Cells: HEK293 cells expressing GHS-R1a receptor (Perkin-Elmer BioSignal) were grown in DMEM (Dulbecco's Modified Eagles Medium) with 10% FBS, 1% sodium pyruvate, 1% NEAA and 400 μg/mL geneticin • 8. […] [D-Lys^3]-GHRP-6 (reference antagonist, Phoenix #031-22) • 10. Assay buffer: HBSS-20 mM Hepes containing 2.5 mM probenecid and 0.1% BSA (bovine serum albumin); pH 7.4
Stock solutions of compounds (10 mM in 100% DMSO) were provided frozen on dry ice and stored at −80° C. prior to use. […] Assay plates were then prepared by appropriate dilution in assay buffer.
Typical Final Test Concentrations (N=10) for Test Compounds (agonist):
Typical Final Test Concentrations (N=10) for Test Compounds (antagonist):
Cells were maintained in culture as indicated above. The cells were harvested at a confluency of 70-90% the day before the experiment. Growth medium was removed and the cells rinsed briefly with PBS without Ca^+2 and Mg^+2. 0.05% Trypsin was added and the plates incubated at 37° C. for 5 min to detach the cells. DMEM medium supplemented with 10% FBS was added to inactivate the trypsin and determine the cell concentration. The inoculum was adjusted to a final concentration of 200 cells/μL and dispensed at 200 μL per well into a 96-well block plate. The plates were, incubated at 37° C. overnight.
The plates were removed from the incubator and the media removed by inversion of the plates. Calcium-3 dye, 50 μL, was loaded and then incubated for 1 h at 37° C. The plate was again inverted and then 25 μL of assay buffer added. The plates were then transferred to the ImageTrak system for analysis. For agonist testing, after reading for ten (10) sec, 25 μL of 2× test compound or control was injected into the assay plate. Fluorescence was monitored for an additional 50 sec. A reading was taken every two (2) seconds for a total of 30 readings per assay point.
For antagonist testing, after reading for ten (10) sec, 12.5 μL of 3× test compound or control was injected into the assay plate and allowed to react for three (3) min.
Concentration response curves were analyzed using GraphPad Prism (GraphPad Software, San Diego, Calif.) by non-linear regression analysis (sigmoidal dose-response). EC50 values are calculated using GraphPad.
Emax values were calculated using the following formula: […]
Concentration response curves were analyzed using GraphPad Prism (GraphPad Software, San Diego, Calif.) by non-linear regression analysis (sigmoidal dose-response). IC50 values are calculated using GraphPad.
Imax values were calculated using the following formula: […]

T2 sequence (Q92847 whole entry): as above

Antagonist Activity, C (C = 10-100 nM):
CCC(C)[C@@H]1NCCOc2ccccc2/C=C/CNC(=O)[C@@H](Cc2cccc(O)c2)NC(=O)[C@H](C(C)O)N(C)C1=O (stereo partly drawn) [Compound 1351], CC(C)[C@@H]1NCCOc2ccccc2CC[C@@H](C)NC(=O)[C@@H](Cc2cccc(O)c2)NC(=O)[C@H](C(C)O)N(C)C1=O (stereo partly drawn) [Compound 1352], CC(C)[C@@H]1NCCOc2cc(F)ccc2CCCNC(=O)[C@@H](Cc2ccccc2)NC(=O)[C@H](C(C)O)N(C)C1=O (stereo partly drawn) [Compound 1363], CC(O)[C@H]1C(=O)N[C@H](Cc2ccccc2)C(=O)N[C@H](C)CCc2ccccc2OCCN[C@@H](C(C)(C)C)C(=O)N1C (stereo partly drawn) [Compound 1370]

Antagonist Activity, B (B = 1-10 nM):
CC(C)[C@@H]1NCCOc2ccccc2CC[C@@H](C)NC(=O)[C@@H](Cc2ccccc2)NC(=O)[C@H](C(C)O)N(C)C1=O (stereo partly drawn) [Compound 1361], CC(C)[C@@H]1NCCOc2cc(F)ccc2CCCNC(=O)[C@@H](Cc2cccc(F)c2)NC(=O)[C@H](C(C)O)N(C)C1=O (stereo partly drawn) [Compound 1366], CC(C)[C@@H]1NCCOc2ccc(F)cc2CC[C@@H](C)NC(=O)[C@@H](Cc2ccccc2)NC(=O)[C@H](C(C)O)N(C)C1=O (stereo partly drawn) [Compound 1380], CC(C)[C@@H]1NCCOc2cccc(F)c2CC[C@@H](C)NC(=O)[C@@H](Cc2ccccc2)NC(=O)[C@H](C(C)O)N(C)C1=O (stereo partly drawn) [Compound 1381]
